From the METLIN SMRT retention time set (Domingo-Almenara et al. 2019) come the findings set out here.

Structures are written as SMILES.

This data set can be described thus: gradient 5% acetonitrile 3 min, to 50% in 2 min, to 85% in 15 min, held 3 min, 100 µL/min. Conditions: column: Zorbax Extend-C18 2.1 x 50 mm; eluents: water / acetonitrile, 0.1% formic acid. In a few lines: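 Pure standards were run in mixtures of ~100 molecules by HPLC coupled to a quadrupole time-of-flight mass spectrometer. The column was a Zorbax Extend-C18 (2.1 × 50 mm, 1.8 μm) at 100 μL/min, with water and acetonitrile each containing 0.1% formic acid, in positive and negative ionization mode. Dead and dwell volumes were 40 μL and 900 μL. Retention time was taken from computationally picked adduct peaks, each manually inspected, with data collected over 3 months.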
`O=C(NCCc1csc(C2CCCN(C(=O)CC3CCCC3)C2)n1)C1CC1` (stereo not drawn) yielded an RP-LC retention time of 757 s.
Under `O=C(NCc1ccc(C(F)(F)F)cc1)C1CCCN(c2nccnc2Oc2ccccc2)C1` (stereo not drawn) stands 1040 s.
Under `CCN(CC)S(=O)(=O)c1ccc(NC(=O)c2ccc3c(=O)n4c(nc3c2)CCCCC4)cc1` stands 875 s; under `CCN1CCN(c2cc(C)c3cc(NC(=O)c4cc(-c5ccco5)nc5ccccc45)ccc3n2)CC1`, 599 s.
In the case of `Cc1cccc(NC(=O)NC2CCN(c3cc(C)cc(C)c3)C2=O)c1` (stereo not drawn), the RP-LC retention time was 945 s.
`CC(=O)Nc1cccc(C(C(F)(F)F)C(F)(F)F)c1` came in with an RP-LC retention time of 778 s.
Compound `Cc1nc(C2(C)CCN(S(=O)(=O)c3ccc(C(C)(C)C)cc3)CC2)no1` showed an RP-LC retention time of 1080 s.
Under `CCn1c(=O)n(Cc2ccccc2Cl)c(=O)c2cnc(-c3ccc(OC)cc3)nc21` stands 1010 s; under `COCC(=O)Nc1ccc2nc(-c3ccc(Cl)cc3)cc(OCC(=O)OC)c2c1`, 756 s.
Under `Cc1ccc(NC(=O)C2CCCN(c3cc(=O)n(C)c(=O)n3C)C2)cc1` (stereo not drawn) stands 725 s; under `COc1ccc(-c2noc(Cc3nnc(-c4ccc(Cl)cc4)o3)n2)cc1`, 1060 s; under `Cc1[nH]c(=O)[nH]c(=O)c1CCc1nnc(SCC(=O)NCc2ccco2)o1`, 566 s.
In the case of `CC(C)c1ccc(-n2nc(N3CCN(C(=O)c4cccs4)CC3)ccc2=O)cc1`, the RP-LC retention time amounted to 913 s.
For `Cc1cc(C)cc(Nc2c(-c3ccc(N(C)C)cc3)nc3cnccn23)c1`, the RP-LC retention time stood at 921 s.
As for `O=C(NCCCn1nc(-c2cccnc2)ccc1=O)c1ccc(F)cc1F`, the RP-LC retention time came out at 569 s.
Under `COc1ccc(OC)c(NC(=O)C2CCN(S(=O)(=O)c3c(C)nn(-c4ccccc4)c3C)CC2)c1` stands 974 s.
As for `CN(CCc1noc(-c2ccc(C(=O)N3CCOCC3)cc2)n1)C(=O)COc1ccc(Cl)cc1`, the RP-LC retention time stood at 766 s.
Under `CCOC(=O)c1ccc(NC(=O)N2CCCC2c2cc(C(C)C)no2)cc1` (stereo not drawn) stands 942 s.
Under `O=S(=O)(NC1CCCC1)c1ccc(-c2cc(C(F)(F)F)on2)o1` stands 1060 s; under `O=C(CN1C(=O)CCCc2cc(S(=O)(=O)N3CCCCCC3)ccc21)NCc1ccc(F)cc1`, 919 s.
Under `Cc1noc(C2(NC(=O)Nc3cccc(Cl)c3C)CCCCC2)n1` stands 872 s.
As for `O=C(NC1CCN(Cc2ccccc2)CC1)c1c(OCC2CC2)cc(=O)n2c1CCCCC2`, the RP-LC retention time was 596 s.
`Cc1ccc(CNC(=O)N2CC(N(C3CCOCC3)S(C)(=O)=O)C2)cc1` came in with an RP-LC retention time of 591 s.
Take `CCn1cc(-c2nc(C(=O)Nc3ccc(F)c(F)c3)cs2)c2cccnc21`: the RP-LC retention time was found to be 940 s.
Under `O=C(Nc1ccc2c(c1)OCO2)C1CCN(c2cc(N3CCSCC3)ncn2)CC1` stands 676 s; under `CCn1c(=O)c2cc(C(=O)Nc3ccc4c(c3)CCC4)nn2c2ccccc21`, 1090 s; under `O=C(c1cnn2c(C(F)(F)F)cc(-c3ccccc3)nc12)N1CCN(c2ccccn2)CC1`, 687 s.
Compound `Cc1ccc(C)c(NC(=O)N2CCCC2c2nncn2-c2ccccc2)c1` (stereo not drawn) displayed an RP-LC retention time of 729 s.
Consider `CC(C)CNC(=O)C1CCN(c2cncnc2N2CCOCC2)CC1`, for which the RP-LC retention time worked out at 582 s.
The result for `O=C(COc1ccc(Cl)cc1)NCc1nnc(SCC(=O)Nc2nccs2)o1` reads 703 s; that for `Cc1sc(NC(=O)C(C)C)nc1-c1ccc2c(c1)N(C)C(=O)CO2`, 831 s.
Under `CCOc1ccccc1-c1noc(Cn2cnc3c(cnn3-c3ccccc3)c2=O)n1` stands 990 s; under `Cc1noc(C)c1-c1ccc(S(=O)(=O)NCc2ccc3c(c2)OCO3)cc1`, 894 s.
For the compound `Cc1noc(C)c1CC(=O)N1C[C@H]2C[C@H](C1)[C@H]1CCCC(=O)N1C2`, the RP-LC retention time turned out to be 599 s.
Under `CC(C)CCn1c(SCc2cc(=O)n3ccccc3n2)nc2c(-c3ccccc3)cn(C)c2c1=O` stands 1200 s; under `COc1ccc(NC(=O)CN2CCc3[nH]c4c(C)c(C)ccc4c(=O)c3C2)cc1Cl`, 650 s.
Under `CC1CCCN(c2nn(CC(=O)Nc3ccc(C(F)(F)F)cc3)c(=O)c3ccccc23)C1` (stereo not drawn) stands 1170 s.
On to `Cc1sc(-c2noc(C(C)C)n2)cc1S(=O)(=O)N1CCC(C(=O)NC2CCCCCC2)CC1`, for which the RP-LC retention time is 1140 s.
Under `O=C(CN1C(=O)CCCc2cc(S(=O)(=O)N3CCCC3)ccc21)NCc1ccccc1` stands 885 s.
`CCC(C)NC(=O)Cn1cnc2nc(N3CCCC(C(=O)NC(C)C)C3)sc2c1=O` (stereo not drawn): the RP-LC retention time stood at 643 s.
The result for `COc1cccc(CNC(=O)NCCC2CCN(S(=O)(=O)c3ccccc3)CC2)c1` reads 821 s.
The result for `CCOC(=O)c1ccc(Nc2c(-c3ccc(C)cc3)nc3cnccn23)cc1` reads 918 s; that for `Cn1cc(C2=CCN(C(=O)c3cc(F)cc(F)c3)CC2)c2cccnc21`, 846 s; that for `O=C(c1ccoc1)N1CCCC1Cc1noc(-c2cnccn2)n1` (stereo not drawn), 686 s.
Under `O=C(C1=CN(c2cccc(F)c2)c2cc(Cl)ccc2S1(=O)=O)N1CCCC1` stands 838 s; under `CCCCOc1ccc(C(=O)N2CCN(c3cc(C)nc(N4CCOCC4)n3)CC2)cc1`, 720 s.
Compound `C=CCN1C(=O)COc2ccc(-c3csc(NC(=O)c4ccc(C)cc4)n3)cc21` returned an RP-LC retention time of 1050 s.
The result for `Cn1cc(-c2ccc(F)cc2)cc1C(=O)NCCN1CCCCC1` reads 672 s.
`Cc1cc(N2CCCC2)n2nc(CN3CCN(CC(C)C)CC3)nc2n1` showed an RP-LC retention time of 549 s.
The result for `O=C(Nc1ccc(OCc2cc(C(=O)NC3CC3)no2)cc1)c1ccc(Cl)cc1` reads 872 s; that for `O=C(Cc1ccccc1Br)N1CCc2cc(-c3ccno3)ccc21`, 1030 s; that for `CCCNC(=O)N(C1CCOCC1)C1CCN(C(=O)c2cccs2)CC1`, 657 s.
`O=C(Cn1cccn1)N1CC(F)(F)C[C@H]1c1nc(C2CC2)no1` had an RP-LC retention time of 723 s.
Consider `O=C(NCc1ccco1)C1CCN(c2nc3ccsc3c(=O)n2Cc2ccccc2)CC1`, for which the RP-LC retention time stood at 829 s.
The result for `CCCNC(=O)N1CCCN(C2=NS(=O)(=O)C(c3ccc(C)c(C)c3)=C2C)CC1` reads 809 s; that for `CC(O)C1CCN(Cc2ccc(Br)o2)CC1` (stereo not drawn), 566 s; that for `CCC(=O)Nc1cccn2nc(C3CCC3)nc12`, 735 s.
In the case of `O=C(NCc1cc(F)cc(F)c1)C1CCCN(c2nccnc2Sc2ccccc2)C1` (stereo not drawn), the RP-LC retention time was 1030 s.
Under `O=C(NCCC1CCN(C(=O)Nc2ccc(F)cc2F)CC1)c1ccsc1` stands 757 s; under `Cc1ccc(CNS(=O)(=O)c2ccc3c(c2)CCCC(=O)N3)cc1`, 751 s; under `CCN(Cc1ccccc1)C(=O)c1cn2cc(Cl)ccc2n1`, 860 s.
`Cc1noc(-c2nn(C)c3c2CN(C(=O)NCc2ccc(F)cc2)CC3)n1` had an RP-LC retention time of 699 s.
Under `O=C(Cn1nc2c3cc(-c4ccc(F)cc4)nn3ccn2c1=O)N1CCCc2ccccc21` stands 968 s; under `Fc1ccccc1-c1nc(-c2ccc3nncn3c2)no1`, 785 s.
On to `COc1ccc(-c2cc(C(F)(F)F)n3ncc(C(=O)O)c3n2)cc1`, for which the RP-LC retention time was 822 s.
Turning to `Cc1ccc(C)c(-c2coc(-c3ccc(NC(=O)NCc4cccc(F)c4)cc3)n2)c1`, the RP-LC retention time stood at 1190 s.
The result for `O=C(Nc1ccc2c(c1)OCCO2)N1CCCn2nc(-c3ccncc3)cc2C1` reads 590 s; that for `Cc1nc2cc(NS(=O)(=O)c3cccc4cccnc34)ccc2s1`, 753 s; that for `Cn1nc(CNC(=O)C2CC(=O)N(C3CCCCC3)C2)c2c1CCN(S(C)(=O)=O)C2` (stereo not drawn), 645 s.
Take `COc1ccc(S(=O)(=O)N2CCC(c3noc(-c4ccncc4)n3)C2)cc1` (stereo not drawn): the RP-LC retention time was 816 s.
The result for `Cc1ccc(-c2nc3cnccn3c2NCCC(=O)NC(C)c2cccs2)cc1` (stereo not drawn) reads 734 s.
In the case of `COc1ccc(CC(=O)Nc2ccc(-c3cn4ccc(C)nc4n3)cc2)cc1`, the RP-LC retention time turned out to be 639 s.
The result for `Cc1cc(C(=O)CN2CCN(C)CC2)c(C)n1-c1cccc(C(F)(F)F)c1` reads 588 s; that for `CC1=C(c2ccc(C)c(C)c2)S(=O)(=O)N=C1N1CCC(C(=O)NCCc2ccco2)CC1`, 884 s.
Under `CC(=O)NCCc1csc(C2CCN(C(=O)C3CCCO3)CC2)n1` (stereo not drawn) stands 581 s.
Under `Cn1cc(-c2cc3n(n2)CCC(=O)N3CC(=O)Nc2ccc(Cl)cc2)c2ccccc21` stands 902 s.
For `CCOc1ccc(OCC)c(S(=O)(=O)N2CCN(c3nc(C)cc(N(C)C)n3)CC2)c1`, the RP-LC retention time is 733 s.
Compound `COC(=O)c1ccccc1NC(=O)Cn1cnc2c(sc3nc(-c4ccccc4)ccc32)c1=O` displayed an RP-LC retention time of 1110 s.
